This is an account of results in US20110021547A1, “Substantially Pure and a Stable Crystalline Form of Bosentan” (ACTAVIS GROUP PTC EHF, priority 2008, published 2011).

One data set is described as follows: Tapped density. The data set is classed as physicochemical.
Data set [1] can be described thus: Polymorphic stability of form A5 after compression or particle size reduction. The data set is classed as physicochemical. The procedure:
The X-Ray powder diffraction was measured by an X-ray powder Diffractometer equipped with a Cu-anode (λ=1.54 Angstrom), X-ray source operated at 40 kV, 40 mA and a Ni filter is used to strip K-beta radiation. Two-theta calibration is performed using an NIST SRM 1976, Corundum standard. The sample was analyzed using the following instrument parameters: measuring range=3-45° 2θ; step width=0.01579°; and measuring time per step=0.11 second.

Data set [2] can be described thus: Storage stability of crystalline form A5 (temperature / relative humidity). In kind it is physicochemical. Here is the method: The term “remains stable”, as defined herein, refers to lack of formation of impurities, while being stored as described herein. The stability of crystalline form A5 is measured by maintaining crystalline form A5 at a temperature of about 40° C. at a relative humidity of about 75% for at least about 1 month, specifically for a period of 6 months, or at a temperature of about 25° C. at a relative humidity of about 60% for at least about 6 months.

Data set [3] is described as follows: Particle size distribution by laser diffraction (Malvern Master Sizer 2000). The data set is classed as physicochemical. From the text:
As used herein, DX means that X percent of the particles have a diameter less than a specified diameter D. Thus, a D90 or d(0.9) of less than 300 microns means that 90 volume-percent of the micronized particles in a composition have a diameter less than 300 microns.
As used herein, “Particle Size Distribution (P.S.D)” means the cumulative volume size distribution of equivalent spherical diameters as determined by laser diffraction in Malvern Master Sizer 2000 equipment or its equivalent. “Mean particle size distribution, i.e., D50” correspondingly, means the median of said particle size distribution.

For data set [4] the following is noted: cited from earlier work.

Structures are written as SMILES. Where two headings read alike, the source gives them in different places.

`COc1ccccc1Oc1c(NS(=O)(=O)c2ccc(C(C)(C)C)cc2)nc(-c2ncccn2)nc1OCCO` [Example 5, Bosentan]: in “Tapped density”, the Tapped density is 0.626 g/mL.
Regarding `COc1ccccc1Oc1c(NS(=O)(=O)c2ccc(C(C)(C)C)cc2)nc(-c2ncccn2)nc1OCCO` [bosentan crystalline form A5, Bosentan], the “crystalline form and stability after mechanical particle size reduction” value in data set [1] (cutting, chipping, crushing, milling, grinding, micronizing) is “remains in the same crystalline faun and stable”. For the same molecule, in data set [1] (pressure of about 7.5 tons/cm^2 for 10 to 15 minutes, checked by X-ray diffractometer), the “crystalline form and stability after compression” value is “remains in the same crystalline form and stable”. Moreover, the “stability on storage, tendency to convert to other forms” value is recorded as “more stable” in data set [2] (about 25° C., relative humidity about 60%, at least about 6 months) and “more stable” in data set [2] (about 40° C., relative humidity about 75%, at least about 1 month, specifically 6 months). In addition, the “crystalline form and stability on storage” value in data set [2] (about 25±2° C., relative humidity about 60±5%, 6 months) is “remains in the same crystalline form and stable”; in data set [2] (about 25±2° C., relative humidity about 60±5%, at least one month), “remains in the same crystalline form and stable”; in data set [2] (about 40±2° C., relative humidity about 75±5%, 6 months), “remains in the same crystalline form and stable”; in data set [2] (about 40±2° C., relative humidity about 75±5%, at least one month), “remains in the same crystalline form and stable”.
As to `COc1ccccc1Oc1c(NS(=O)(=O)c2ccc(C(C)(C)C)cc2)nc(-c2ncccn2)nc1OCCO` [Example 9C, Bosentan], in data set [3], the “Particle Size Distribution d(0.1)” value is given as 7.89 microns, the “Particle Size Distribution d(0.5)” value was determined as 31.92 microns and the “Particle Size Distribution d(0.9)” value is recorded as 69.43 microns.
As to `COc1ccccc1Oc1c(NS(=O)(=O)c2ccc(C(C)(C)C)cc2)nc(-c2ncccn2)nc1OCCO` [Example 8, Bosentan], the “Particle Size Distribution d(0.9)” value in data set [3] is reported as “less than 60 microns”.
Take `COc1ccccc1Oc1c(NS(=O)(=O)c2ccc(C(C)(C)C)cc2)nc(-c2ncccn2)nc1OCCO` [Example 7, Bosentan]: in data set [3], the “Particle Size Distribution d(0.1)” value is 13.39 microns, the “Particle Size Distribution d(0.5)” value is on record as 85.61 microns and the “Particle Size Distribution d(0.9)” value is on record as 231.09 microns.
In the data set “Tapped density”, `COc1ccccc1Oc1c(NS(=O)(=O)c2ccc(C(C)(C)C)cc2)nc(-c2ncccn2)nc1OCCO` [Example 6, Bosentan] had a Tapped density of 0.667 g/mL.
Regarding `COc1ccccc1Oc1c(NS(=O)(=O)c2ccc(C(C)(C)C)cc2)nc(-c2ncccn2)nc1OCCO` [Example 9E, Bosentan], in data set [3], the “Particle Size Distribution d(0.1)” value came out at 17.03 microns, the “Particle Size Distribution d(0.5)” value was determined as 58.84 microns and the “Particle Size Distribution d(0.9)” value was determined as 127.11 microns.
`COc1ccccc1Oc1c(NS(=O)(=O)c2ccc(C(C)(C)C)cc2)nc(-c2ncccn2)nc1OCCO` [Example 3, Bosentan] came in with a Tapped density in the data set “Tapped density” of 0.668 g/mL.
`COc1ccccc1Oc1c(NS(=O)(=O)c2ccc(C(C)(C)C)cc2)nc(-c2ncccn2)nc1OCCO` [Example 9D, Bosentan]: in data set [3], the “Particle Size Distribution d(0.1)” value came out at 14.85 microns, the “Particle Size Distribution d(0.5)” value is 53.73 microns and the “Particle Size Distribution d(0.9)” value is 109.61 microns.
`COc1ccccc1Oc1c(NS(=O)(=O)c2ccc(C(C)(C)C)cc2)nc(-c2ncccn2)nc1OCCO` [Example 9A, Bosentan]: in data set [3], the “Particle Size Distribution d(0.5)” value stood at 28.95 microns and the “Particle Size Distribution d(0.9)” value turned out to be 120.88 microns.
As for `COc1ccccc1Oc1c(NS(=O)(=O)c2ccc(C(C)(C)C)cc2)nc(-c2ncccn2)nc1OCCO` [Example 9, Bosentan], the “Particle Size Distribution d(0.9)” value in data set [3] is on record as “less than 130 microns”.
On to `COc1ccccc1Oc1c(NS(=O)(=O)c2ccc(C(C)(C)C)cc2)nc(-c2ncccn2)nc1OCCO` [Example 4, Bosentan], for which the Tapped density in “Tapped density” was determined as 0.714 g/mL.
Regarding `COc1ccccc1Oc1c(NS(=O)(=O)c2ccc(C(C)(C)C)cc2)nc(-c2ncccn2)nc1OCCO` [Bosentan, p-tert-butyl-N-[6-(2-hydroxyethoxy)-5-(2-methoxyphenoxy)-2-(2-pyrimidinyl)-4-pyrimidinyl]benzenesulfonamide monohydrate], the “solubility in aqueous solution at low pH” value in data set [4] (pH 1.1) is 0.1 mg/100 ml; in data set [4] (pH 4.0), 0.1 mg/100 ml; in data set [4] (pH 5.0), 0.2 mg/100 ml. In addition, in data set [4] (water), the solubility in water is given as 1.0 mg/100 ml.
Regarding `COc1ccccc1Oc1c(NS(=O)(=O)c2ccc(C(C)(C)C)cc2)nc(-c2ncccn2)nc1OCCO` [Example 9B, Bosentan], in data set [3], the “Particle Size Distribution d(0.1)” value was determined as 11.76 microns, the “Particle Size Distribution d(0.5)” value is recorded as 38.96 microns and the “Particle Size Distribution d(0.9)” value is 78.25 microns.
